For one data set, the system named is p-Akt in B16 cells. Put plainly: Akt phosphorylation (cELISA, Western blot), B16. Format: cell-based, mouse. Conditions: 18.8 μM, B16 as representative (similar in C6). From the text:
A slightly modified method for cell-based ELISA (cELISA) by Versteeg (Versteed et al., 2000) was used to measure the expression of galactocerebroside, glial fibrilar acidic protein (GFAP), myelin basic protein (MBP), cyclin D3, p53 and p-AKT. Briefly, at the end of cultivation period cells were fixed in 4% paraformaldehyde, endogenous peroxydase was quenched with 1% H2O2 in PBS containing 0.1% Triton X-100 (PBST), and unspecific binding of antibodies blocked with PBST solution containing 10% FCS. […] The absorbance at 450 nm was measured in an automated microplate reader 15 min after incubation with peroxydase substrate TMB and subsequently to addition of 0.1 M HCl. To facilitate comparison between treatments, the obtained absorbances were corrected for the cell number that was determined by crystal violet staining, as described in the original protocol. […]
FIG. 6. […] (C) B16 cells (1×10^4 cells/well) were incubated for 24 h with 18.8 μM Saq-NO2 with or without Akt VI (50μg/ml) or 3-MA (1 mM) and cell viability was assessed by MTT. […]
A general note: A western blot detects proteins with antibodies after separation by electrophoresis.

Data set [1] relates to transformed human (HeLa, BT20, HCC 1419, PC-3) and rodent (C6, B16) cell lines. Put plainly: Cell viability by crystal violet assay, tumor cell line panel. Format: cell-based, rat, mouse. Conditions: 24 h. An excerpt:
Rat glioma C6 and human glioblastoma U251 cell lines were a kind gift from Dr. Pedro Tranque (Universidad de Castilla-La Mancha, Albacete, Spain), murine melanoma B 16, and human adenocarcinoma HeLa, were a kind gift from Dr. Sinisa Radulovic (Institute for Oncology and Radiology of Serbia, Belgrade, Serbia) while mouse fibrosarcoma L929 was obtained from the European Collection of Animal Cell Cultures (Salisbury, UK). Human breast HCC1419 and prostate PC-3 cells were purchased from LGC Promochem srl (Venezia, Italy). Primary mouse fibroblasts and rat astrocytes were prepared as described (Mijatovic et al. 2004). Cells were grown in HEPES-buffered RPMI 1640 medium supplemented with 5% FCS, 2 mM glutamine, 0.01% sodium pyruvate, 5×10^−5 M 2-mercaptoethanol, and antibiotics (culture medium) at 37° C. in a humidified atmosphere with 5% CO2. After the conventional trypsinization procedure cells were seeded at 1×10^4/well in 96-well, 2×10^5/well in 6-well plate or 3×10^4/well in 4-well chamber slide, cultivated overnight, and then exposed to drug. […]
(§1) Reduction of 3-4,5-dimethylthiazol-2-yl)-2,5-diphenyltetrazolium bromide (MTT) to formazan depends on mitochondrial activity of cultured cells, absorption of crystal violet dye correlates with the number of adherent, live cells, while the release of cytosolic lactate dehydrogenase (LDH) indicates the disruption of membrane integrity caracteristic for necrotic cells. […] Mitohondrial-dependent production of formazan and intensity of absorbed crystal violet by adherent cells were assessed by an automated microplate reader at 570 nm, while the pyruvate-mediated conversion of 2,4-dinitrophenylhydrazine into visible hydrazone precipitate in LDH assay was measured at 492 nm. The % of cytotoxicity as indicated by LDH release was calculated as: (E−C)/(T−C)×100, where E is the experimental absorbance of cell cultures, C is the control absorbance of cell-free culture medium, and T is the absorbance corresponding to the maximal (100%) LDH release of Triton-lysed cells.
(§2) FIG. 2. […] Cell viability was then evaluated by CV test. […]

The next data set concerns mouse fibroblasts. The experiment in a line: Cell viability by CV test, primary fibroblasts. Format: cell-based. The note with it: 24 h, Sag at its IC50 dose.
Description: (§3) Rat glioma C6 and human glioblastoma U251 cell lines were a kind gift from Dr. Pedro Tranque (Universidad de Castilla-La Mancha, Albacete, Spain), murine melanoma B 16, and human adenocarcinoma HeLa, were a kind gift from Dr. Sinisa Radulovic (Institute for Oncology and Radiology of Serbia, Belgrade, Serbia) while mouse fibrosarcoma L929 was obtained from the European Collection of Animal Cell Cultures (Salisbury, UK). Human breast HCC1419 and prostate PC-3 cells were purchased from LGC Promochem srl (Venezia, Italy). Primary mouse fibroblasts and rat astrocytes were prepared as described (Mijatovic et al. 2004). […]
as §1, with “The % of cytotoxicity as indicated by LDH release was calculated as: (E−C)/(T−C)×100, where E is the experimental absorbance of cell cultures, C is the control absorbance of cell-free culture medium, and T is the absorbance corresponding to the maximal (100%) LDH release of Triton-lysed cells.” left out
as §2

The next data set deals with rat primary astrocytes. Put plainly: Cell viability by CV test, primary astrocytes. In kind it is cell-based. Conditions: 24 h, Sag at its IC50 dose.
Description: as §3
as §1, with “The % of cytotoxicity as indicated by LDH release was calculated as: (E−C)/(T−C)×100, where E is the experimental absorbance of cell cultures, C is the control absorbance of cell-free culture medium, and T is the absorbance corresponding to the maximal (100%) LDH release of Triton-lysed cells.” left out
as §2

Turning to `CC(C)(C)NC(=O)[C@@H]1C[C@@H]2CCCC[C@@H]2CN1C[C@@H](O)[C@H](Cc1ccccc1)NC(=O)[C@H](CC(N)=O)NC(=O)c1ccc2ccccc2n1` [Saq, Saquinavir, reference compound], in the data set with p-Akt in B16 cells, the “p-Akt expression / phosphorylation of AKT” value is reported as “abrogated p-Akt expression”. Besides, in data set [1], the “anti-tumor potential (viability of tumor cell lines)” value is given as “strong anti-tumor potential”. The “effect on viability of non-transformed primary fibroblasts” value in the data set on mouse fibroblasts was “highly toxic”. For the same compound, the “effect on viability of non-transformed primary astrocytes” value in the data set with rat primary astrocytes is given as “highly toxic”.

As to `CC(C)(C)NC(=O)[C@@H]1C[C@@H]2CCCC[C@@H]2CN1C[C@@H](O[N+](=O)[O-])[C@H](Cc1ccccc1)NC(=O)[C@H](CC(N)=O)NC(=O)c1ccc2ccccc2n1` [Saq-NO2, nitric ester of Saquinavir], the “p-Akt expression / phosphorylation of AKT” value in the data set with p-Akt in B16 cells is “induced considerable transient phosphorylation of AKT”. Moreover, the “anti-tumor potential (viability of tumor cell lines)” value in data set [1] was “strong anti-tumor potential”. Further, in data set [1] (tumor cell lines), the “IC50 value relative to the parent drug” value is listed as “two to four fold lower”. Moreover, in the data set on mouse fibroblasts, the “effect on viability of non-transformed primary fibroblasts” value is “did not affect the viability”. The “effect on viability of non-transformed primary astrocytes” value in the data set with rat primary astrocytes is listed as “did not affect the viability”.

The values are drawn from US8563578B2, “Antitumor properties of NO modified protease inhibitors” (Onconox APS, priority 2008, dated 2013).
